Data taken from US8394971B2, “Indole derivatives as selective androgen receptor modulators (SARMS)” (Janssen Pharmaceutica N.V., priority 2004, dated 2013).
Where two headings read alike, the source gives them in different places.

Tests used:
[1] = tested on: testosterone-enhanced ventral prostate and seminal vesicle weights in castrated male Sprague Dawley rats; experiment: Ventral Prostate and Seminal Vesicle Weight In Vivo Assay; design: species or system rat; conditions: immature castrated rats; once daily for five days, usually orally at 40 mg/kg, with testosterone propionate 2 mg/kg s.c.
Outline: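 Immature (~50 g) castrated Sprague Dawley rats dosed once daily for five days with compound (usually oral, 40 mg/kg, cyclodextrin or methylcellulose vehicle) plus testosterone propionate 2 mg/kg s.c. Wet ventral prostate and seminal vesicle weights taken on day six; activity judged by prostate weight or body-weight-adjusted % inhibition.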

[2] = target: T1, androgen receptor (adenovirus AdEasy+rAR in COS-7 cells) (Rattus norvegicus, UniProt P15207); experiment: COS-7 Whole-Cell Androgen Receptor Binding Assay, Adenovirus Transduction; conditions: for IC50: read-out: IC50
T1 construct: expressed in transfected cells
T1 sequence (P15207 1-902): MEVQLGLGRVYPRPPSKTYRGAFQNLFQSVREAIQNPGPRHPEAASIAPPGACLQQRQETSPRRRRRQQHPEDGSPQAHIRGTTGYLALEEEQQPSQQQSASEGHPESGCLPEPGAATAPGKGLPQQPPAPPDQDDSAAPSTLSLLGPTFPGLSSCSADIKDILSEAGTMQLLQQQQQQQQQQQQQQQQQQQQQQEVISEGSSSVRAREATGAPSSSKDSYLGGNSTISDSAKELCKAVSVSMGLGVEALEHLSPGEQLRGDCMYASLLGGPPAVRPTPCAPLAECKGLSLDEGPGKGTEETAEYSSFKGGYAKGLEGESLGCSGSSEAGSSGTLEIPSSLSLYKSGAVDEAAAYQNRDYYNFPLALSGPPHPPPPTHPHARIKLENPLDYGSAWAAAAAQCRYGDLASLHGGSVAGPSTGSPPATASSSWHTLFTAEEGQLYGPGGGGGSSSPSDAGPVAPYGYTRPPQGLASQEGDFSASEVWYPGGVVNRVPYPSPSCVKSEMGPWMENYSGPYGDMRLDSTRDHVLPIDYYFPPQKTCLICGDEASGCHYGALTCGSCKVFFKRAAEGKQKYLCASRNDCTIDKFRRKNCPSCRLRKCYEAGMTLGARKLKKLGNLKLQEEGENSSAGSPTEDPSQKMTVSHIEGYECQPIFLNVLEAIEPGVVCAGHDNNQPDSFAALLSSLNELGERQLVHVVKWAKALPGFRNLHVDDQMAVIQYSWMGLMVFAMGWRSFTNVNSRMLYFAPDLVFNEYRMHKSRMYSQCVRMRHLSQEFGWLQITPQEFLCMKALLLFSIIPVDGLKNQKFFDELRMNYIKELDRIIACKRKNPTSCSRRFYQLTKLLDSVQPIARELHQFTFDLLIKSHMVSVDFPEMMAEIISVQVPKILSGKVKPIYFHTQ

[3] = COS binding, 3000 nM unless otherwise noted

Structure (SMILES): CC(O)(C[S+]([O-])Cc1ccccc1)c1cc2cc([N+](=O)[O-])c(C(F)(F)F)cc2[nH]1 (mixture of isomers) [compound 161]
- active / inactive (inhibition of testosterone-enhanced prostate weight) [1]: inactive
- % Inhibition [2, 3]: 20%

Structure (SMILES): CC(C)CSCC(C)(O)c1cc2cc([N+](=O)[O-])c(C(F)(F)F)cc2[nH]1 (racemic) [compound 170]
- active / inactive (inhibition of testosterone-enhanced prostate weight) [1]: active
- % Inhibition [2]: 67%
- IC50 ([2]; COS binding): > 3 µM

Structure (SMILES): COc1ccc(SCC(C)(O)c2cc3cc(Cl)c(C(F)(F)F)cc3n2S(C)(=O)=O)cc1 (racemic) [compound 130]
- % Inhibition [2, 3]: −8%

Structure (SMILES): CSCCC(C)(O)c1cc2cc([N+](=O)[O-])c(C(F)(F)F)cc2[nH]1 (racemic) [compound 47]
- active / inactive (inhibition of testosterone-enhanced prostate weight) [1]: inactive
- % Inhibition [2]: 78%
- IC50 ([2]; COS binding): > 1 µM

Structure (SMILES): COc1ccc(S(=O)(=O)CC(C)(O)c2cc3cc(Cl)c(C(F)(F)F)cc3[nH]2)cc1 (racemic) [compound 129]
- active / inactive (inhibition of testosterone-enhanced prostate weight) [1]: inactive
- % Inhibition [2, 3]: 10%
